Reference: EP0139358B1, “N6-substituted diarylalkyl adenosines, processes for their production and pharmaceutical compositions comprising the same” (priority 1983, dated 1985)
Like-named read-outs stand apart in the source and are kept apart here.

Experiments:
[1] = test system: rat heart; assay: Coronary blood flow (PCS2A): isolated perfused heart; settings: isolated perfused rat heart
Description: CORONARY BLOOD FLOW (PCS2A)
Male rats (400-600 gms) are pretreated with Na haparin 2000 units and anesthetized with Na pentobarbital (50 mg/kg) administered intraperitoneally. Once anesthetized, the rat heart is rapidly excised, the ascending aorta fitted to the aortic perfusion cannula, and […] with a ligature. The coronary arteries are perfused initially at a rate of about 15 ml/min for two to three minutes, afterwhich they are perfused at constant pressure of 70 mm Hg and temperature of 37°C. The electrocardiogram (ECG) is recorded using two platinum electrodes positioned at the base and apex of the left ventricle. A second heart is excised, cannulated, and perfused by the same method outlined above. Both hearts are tested in parallel. The standard physiological salt solution (PSS) is a modified Krebs-Hanseleit bicarbonate buffer of the following composition in mM concentration: NaCI, 127; NaHC03, 25; dextrose, 5.5; Na Pyruvate, 2.0: KCI, 4.7; MgS04, 1.1; KH 2P04, 1.2; CaCl2·2H2O, 2.5; CaNa2 EDTA, 0.05.
A 30-minute stabilization period is observed before starting the test protocol.
The microprocessor control system is a servo mechanism which permits coronary perfusion pressure (CPP) and drug concentration to be maintained constant independent of changes in coronary flow. The level at which CPP and drug concentration are maintained can be changed by commands communicated through the microprocessor keyboard. Dose-response curves are carried out by perfusing concentrated drug solution (DC) at rates proportional to total coronary flow (CFT). Drug concentrations are increased by proportionate increases in the rate of DC infusion over CFT via the microprocessor keyboard. The proportional flow rates for DC:CFT is about .0002:1 at the low end and .02: at the high end of the dose-response curve. Dose-response curves encompassing at least two log doses are carried out by preparing two DCs with a concentration difference of 1:100. Following the first dose range of two log doses, the DC are switched, proportional pumping rate adjusted, and the dose-response curve continued for another two log doses. The standard dose-response curve is carried out in one-half log dose increments starting at a subthreshold dose and ending at a dose which produces near maximal response in activity. Standard reference compounds are tested over the range of 10-^9 to 10-^6M.
Measurements are for heart rate (HR) and coronary flow (CF). Units are: HR, beats/minute (bpm) and CF, milliliters/minute (ml/min). HR is calculated from the ECG strip chart recording and CF is calculated by recording analog outputs from pumps 1 and 2. Outputs from pump #1 = CFT and the output from pump #2 = CF for heart B (CFg). CF for heart A (CFA) is calculated (CFT - CFB = CFA).
Using the above technique, the effects of the compound of Examples 1 and 2 are as follows: […]

[2] = test system: Long-Evans rats or squirrel-monkeys; assay: Antipsychotic lever-push shock avoidance protocol (SIDR); format: in vivo; settings: Rattus norvegicus; shock avoidance lever pushing; read-out: SIDR ED50
Description: Representative compounds of the invention (identified in the Examples) were also tested for antipsychotic activity according to the following protocol (SIDR). […] Mature male Long-Evans rats or squirrel-monkeys are conditioned to push a lever in order to avoid a painful electric footshock. If the animal fails to push the lever, he receives a shock every ten seconds until the lever is pushed. Shocks can be terminated by pushing the lever. Thereafter, as long as the lever is pushed at least once every 20 seconds, there will be no shock. Each animal acts as its own control; one weekly session is used to establish baseline behavior and another session later in the week is used as a drug session. Once patterns of avoidance are established, the effects of standard and unknown compounds are studied. All events are electronically programmed and the response to these events counted or used as feedback to the program.

[3] = test system: Swiss-Webster male mice; assay: Mouse Activity and Screen Test (MAST): inhibition of spontaneous locomotion (LI); format: in vivo; settings: for Inhibition of mouse locomotor activity: one hour prior to testing, vs vehicle; for minimal effective dose: Mus musculus, ip, read-out: MAST LI LAD
Description: (§1) Treatments are administered intraperitoneally one hour prior to testing. […] Compounds are dissolved or suspended in 0.2% Methocel. Control animals are injected with Methocel.
Immediately following the screen test, the final phase of testing is initiated by placing each group of three mice in one actophotometer (Life Sciences, 22, 1067-1076, 1978). The actophotometer consists of a cylindrical chamber whose center is occupied by another cylinder which contains the illumination for six photocells located on the perimeter of the chamber. Six light-beam interruptions equal one count. Locomotor activity is recorded by computer at ten minute intervals for 60 minutes. […]

[4] = test system: Swiss-Webster male mice; assay: Mouse Activity and Screen Test (MAST): screen test (ST); format: in vivo; settings: for Inhibition of screen test failure: percent of mice falling off the screen; for MAST ST LAD: lowest dose at which an A rating (60-100%) is achieved, screen test, intraperitoneally
Description: as §1
The compounds are identified in the Examples.

[5] = test system: conscious rat; assay: Antihypertensive evaluation (AHP3): aortic blood pressure and heart rate; format: in vivo; settings: conscious rat; for minimal effective dose: lowest dose tested at which a >10% reduction in blood pressure for four consecutive hours is achieved, read-out: AHP3 BP LAD
Text: […] EVALUATION (AHP3)
This test procedure is described in the following paragraphs.
A Method for the Direct Monitoring of Aortic Blood Pressure and Heart Rate from Conscious Rats
The continuous monitoring of pulsatile blood pressure (BP) from unrestrained conscious rats surgically equipped with polyethylene cannulas was accomplished by means of a computer assisted data capture scheme (CADCS). The absic elements of the methodology are the cannulation procedure and the CADCS.
Cannulation Procedure: Rats were anesthetized with Telazol (1:1 tiletamine HCI and zolazepam HCI); 20-40 mg/kg IM and the descending aorta exposed via a midline incision. Cannulas fabricated from polyethylene tubing were inserted into the aorta via an undersized puncture hole below the renal arteries. The puncture hole was made by a 23 G disposable needle with a section of the aorta clamped off above and below the puncture site. The cannulas, consisting of a PE100 (0.86 mm ID) body and a PE50 (0.58 mm ID) tip, were attached to a trocar, inserted through the psoas muscle, and passed subcutaneously along the midline of the back and externalized between the ears. The cannulas were anchored to the psoas muscle and between the scalulae (3-0 green braided suture). The midline incision was closed in two steps (muscle first, skin second) using continuous over-and over sutures (4-0 chronic). Each rat was then given penicillin 30,000 units subcutaneously (Penicillin G Procaine Sterile Suspension).
The rats were fitted with a harness-spring-swivel assembly designed to protect the cannula and to provide the rat relative freedom of movement. The harnesses were fabricated from nylon hook and loop tape cemented to a metal plate to which spring wires (18-8 stainless steel), were attached to brass swivels. Each polyethylene cannula was channeled through a spring and connected through a swivel to a pressure transducer (Model P23Gb; Statham Instruments; Hato Rey, Puerto Rico) and an infusion pump (Sage model 234-7; Orion Research, Cambridge, Ma) by means of PE100 tubing. While on test, each rat received a continuous slow infusion of heparinized saline solution (approximately 400 I or 40 units of heparin per 24 hour period) to prevent clot formation. Additional "flushes" of the cannula with heparinized saline were carried out when the aortic pulse pressure (systolic minus diastolic) was less than 25 mm Hg.
CADCS: The pulsatile blood pressure and heart rate of each of 32 rats was monitored every minute by means of two in-laboratory microcomputers communicating directly with a data concentrator computer. The data were first stored on the data concentrator disk and then transferred to a magnetic tape for analysis and report generation by the main research computer. The overall scheme involved modulating the primary signal from the pressure transducer, generating the primary data set of the one-minute values for systolic, diastolic, and mean blood pressures and heart rate by the in-lab microcomputer and the storage, analysis, and report generation by the main research computer.
The transducers were connected to analog signal conditioning modules. The modules providing a regulated excitation voltage for the transducers, amplification as required to interface the microprocessors and an active low pass filter to compensate for the pressure wave form distortion produced by the flexible, fluid filled, narrow cannula.
The microcomputers (one for each of two groups of 16 rats) were connected to the input components through the module interface units, an analog-to-digital converter for the pressure wave form signal and the digital inputs for the dose and event marker switches. The microcomputer controlled the sequential acquisition of data from the modular interface units through an internal synchronous time-of-day clock/ time base generator. […]

[6] = coronary flow, read-out: PCS2A CF ED50
[7] = heart rate, read-out: PCS2A HR ED50

| SMILES | EC50 [1, 6] | Inhibition of screen test failure ([4]; 10 mg/kg intraperitoneally) | Inhibition of screen test failure ([4]; 30 mg/kg intraperitoneally) | Inhibition of screen test failure ([4]; 100 mg/kg intraperitoneally) | MAST ST LAD [4] | EC50 [1, 7] | ED50 [2] | Inhibition of mouse locomotor activity ([3]; 10 mg/kg intraperitoneally) | Inhibition of mouse locomotor activity ([3]; 30 mg/kg intraperitoneally) | Inhibition of mouse locomotor activity ([3]; 100 mg/kg intraperitoneally) | minimal effective dose [3] | Mμ.c. ↓ ([5]; 10 mg/kg, decrease in mean arterial blood pressure) | HR ↑ ([5]; 10 mg/kg, heart rate increase) | minimal effective dose [5] |
| --- | --- | --- | --- | --- | --- | --- | --- | --- | --- | --- | --- | --- | --- | --- |
| OC[C@H]1O[C@@H](n2cnc3c(NC(c4ccccc4)c4ccccc4)ncnc32)[C@H](O)[C@@H]1O [Example 5, N^6-Diphenylmethyladenosine, reference compound] | > 3000 nM |  |  |  | >100 mg/kg | > 3000 nM | > 50 mg/kg |  |  |  | 100 mg/kg |  |  | > 10 mg/kg |
| OC[C@H]1O[C@@H](n2cnc3c(NCC(c4ccccc4)c4ccc(F)cc4)ncnc32)[C@H](O)[C@@H]1O (stereo partly shown) [Example 10, N^6-(2-(4-Fluorophenyl)-2-phenylethyl)adenosine] | 10 nM |  |  |  | >100 mg/kg | 1400 nM | 8.6 mg/kg |  |  |  | 3 mg/kg |  |  | 10 mg/kg |

Continued, in another order:

| EC50 [1, 6] | Inhibition of screen test failure ([4]; 10 mg/kg intraperitoneally) | Inhibition of screen test failure ([4]; 30 mg/kg intraperitoneally) | Inhibition of screen test failure ([4]; 100 mg/kg intraperitoneally) | MAST ST LAD [4] | SMILES | EC50 [1, 7] | ED50 [2] | Inhibition of mouse locomotor activity ([3]; 10 mg/kg intraperitoneally) | Inhibition of mouse locomotor activity ([3]; 30 mg/kg intraperitoneally) | Inhibition of mouse locomotor activity ([3]; 100 mg/kg intraperitoneally) | minimal effective dose [3] | Mμ.c. ↓ ([5]; 10 mg/kg, decrease in mean arterial blood pressure) | HR ↑ ([5]; 10 mg/kg, heart rate increase) | minimal effective dose [5] |
| --- | --- | --- | --- | --- | --- | --- | --- | --- | --- | --- | --- | --- | --- | --- |
| 30000 nM | 0% | 11% | 44% | >100 mg/kg | OC[C@H]1O[C@@H](n2cnc3c(NCC(c4ccccc4)c4ccccc4)nc(Cl)nc32)[C@H](O)[C@@H]1O [Example 3, N^6-(2,2-Dipenylethyl)-2-chloroadenosine] | > 30000 nM | 9.6 mg/kg | 56% | 85% | 92% | 10 mg/kg | 15% | <20% | 10 mg/kg |
| 1000 nM | 0% | 11% | 22% | >100 mg/kg | Nc1nc(NCC(c2ccccc2)c2ccccc2)c2ncn([C@@H]3O[C@H](CO)[C@@H](O)[C@H]3O)c2n1 [Example 4, N^6-(2,2-Diphenylethyl)-2-aminoadenosine] | > 100 nM | 3.8 mg/kg | 64% | 87% | 95% | 10 mg/kg |  |  | 30 mg/kg |
| > 10000 nM |  |  |  | >100 mg/kg | Nc1nc(NCC(c2ccccc2)c2ccc(F)cc2)c2ncn([C@@H]3O[C@H](CO)[C@@H](O)[C@H]3O)c2n1 (stereo partly shown) [Example 12, N^6-(2-(4-Fluorophenyl)-2-phenylethyl)-2-amino adenosine] | > 10000 nM |  |  |  |  | 30 mg/kg |  |  | 10 mg/kg |
